Assay results taken from PMC8901748, “A novel prostaglandin E receptor 4 (EP4) small molecule antagonist induces articular cartilage regeneration” (Cell Discovery, 2022).
Read-outs that look alike come from different tables or passages of the source. Blank lines part the entries; values can stand above or below the molecule they belong to.

What was measured:
[1] = test system: primary articular chondrocytes; experiment: Cell viability by CCK-8 assay; assay type: cell-based, mouse; settings: 72 h, read-out: IC50 (cell viability, toxicity in chondrocytes)
Protocol: The cell viability was evaluated by CCK-8 assay (Dojindo Molecular Technologies). Primary chondrocytes were plated in the 96-well plates and treated with the EP4 antagonists or DMSO for 72 h. A total of 10 μl CCK-8 was added to each well, the cells were incubated in the presence of CCK-8 for 2–3 h. The optical density (OD) of each well at 450 nm was recorded on a Microplate Reader (SPECTRA MAX190). The absorbance values were normalized by subtracting blank values of […]. The cell viability (% of control) is calculated as the percentage of (ODtest − ODblank)/(ODcontrol − ODblank). The 50% inhibitory concentration (IC50) was calculated with GraphPad Prism software using the sigmoidal dose-response function.
(§1) ATDC5 cell line was purchased from Riken BioResource Center (Tsukuba, Japan) and grown in a 1:1 mixture of DMEM/F12 medium (Corning, 10-092-CVR) supplemented with 5% fetal bovine serum (Gibco, 10099, USA) and 1% penicillin-streptomycin solution (Life Technologies). Cells were maintained at 37 °C under 5% CO2. Primary chondrocytes were obtained from knee joint cartilage of newborn mice. Knee joints were dissected from the tibia plateau and femoral condyle articular cartilage of mouse pups and digested in 0.1% collagenase type II (Sigma) overnight at 37 °C and chondrocytes were harvested by centrifugation. Primary chondrocytes were cultured at a density of 5 × 10^3 cells per ml at 37 °C with 5% CO2. DMEM/F12 medium with 10% fetal bovine serum (FBS) and 1% penicillin–streptomycin was used to culture the primary chondrocytes. Chondrogenic differentiation were induced with chondrogenic medium, which contains insulin-transferrin-selenium (ITS) (Sigma, I3146), 10 ng/ml TGF-β3 (PEPROTECH, 100-36E, USA), 100 nM Dexamethasone (Sigma, D4902), 50 μg/ml VC (Sigma), 1 mM sodium pyruvate (Sigma) and 40 μg/ml proline (Sigma), and/or treatment with rmIL-1β (R&D, 401-ML/CF), TNFα (PEPROTECH, 300-01A-50) in DMEM/F12 for indicated days. Western blotting was performed according to standard protocols. Antibodies used were: rabbit anti-Mmp3 (1:1000, HuaBio), rabbit anti-Mmp13 (1:500, abcam, ab39012), rabbit anti-p-CREB (1:2000, Cell Signaling Technology, 87G3), rabbit anti-CREB (1:2000, Cell Signaling Technology, 48H2), mouse anti-GAPDH (1:5000; Sigma-Aldrich, G8795), rabbit anti-Col2 (Abcam, Ab34712), rabbit anti-STAT3 (1:2000; Abcam, ab68153), rabbit anti-p-STAT3 (Y705) (1:2000; Abcam, ab76315), rabbit anti -p65 (1:1000; CST, 3034), rabbit anti-p-p65 (1:1000; CST, 3033), and rabbit anti-IκBα (1:1000; Abways, CY5026).

zebrafish embryos = experiment: Zebrafish embryo toxicity assay; set-up: Mortality / Deformities / Hatching: dose or concentration left out as unconfirmed; settings: for Mortality: zebrafish embryos; for Deformities / Hatching: zebrafish
Protocol: A breeding stock of zebrafish at the age of 6–24 months is used for egg production. Fertilized eggs were collected and viable eggs were transferred to the 12-well plate at 26 °C. Fertilized eggs between the 4-cell and 128-cell stages be used for the toxicity test, with ten fertilized eggs per concentration and three replicates of each concentration, a total of 30 eggs for each concentration. […] DMSO was added as vehicle control. Hatching, morphological abnormalities and survival were assessed 24 and 72 h of post-fertilization (dpf) in zebrafish exposed to the chemicals.

CRE-Luc in ATDC5 cells = experiment: CRE-Luc luciferase reporter assay; assay type: cell-based, mouse; settings: 10 μM H89, 30 μM HL-43, 2 ng/ml IL-1β, 6 h
Protocol: Six firefly luciferase reporters were used in the Luciferase assay, including CRE-Luc (PathDetect CRE cis-Reporting System; Stratagene, La Jolla CA) driven by a basic promoter (TATA box) plus four repeats of CRE; Sox9 promoter-Luc contains human SOX9 proximal promoter region (−1034 bp to +67 bp)[45]; 4 × 48-p89-Luc, mouse Col2a1 minimal promoter. AP-1-Luc, Nf-κb-Luc, STAT-Luc were obtained from Stratagene. Chondrocytes were cultured in 24-well plates and 300 ng firefly luciferase reporter constructs were transiently transfected using transfection reagent TransExellent-DNA (Cenji Biotech Inc, China) following manufacturer’s instruction, and 15 ng of the Copia-Renilla luciferase reporter was co-transfected as a normalization control. […] The Dual-Luciferase measurements were performed in triplicate using the Luciferase assay kit (Promega) and a LUMIstar Omega luminometer (BMG Labtech, Mornington, Australia).

[2] = test system: Sox9 promoter-Luc in ATDC5 cells; experiment: Sox9 promoter-Luc luciferase reporter assay; assay type: cell-based, mouse; settings: 10 μM H89, 30 μM HL-43, 6 h
Protocol: Six firefly luciferase reporters were used in the Luciferase assay, including CRE-Luc (PathDetect CRE cis-Reporting System; Stratagene, La Jolla CA) driven by a basic promoter (TATA box) plus four repeats of CRE; Sox9 promoter-Luc contains human SOX9 proximal promoter region (−1034 bp to +67 bp)[45]; 4 × 48-p89-Luc, mouse Col2a1 minimal promoter. AP-1-Luc, Nf-κb-Luc, STAT-Luc were obtained from Stratagene. Chondrocytes were cultured in 24-well plates and 300 ng firefly luciferase reporter constructs were transiently transfected using transfection reagent TransExellent-DNA (Cenji Biotech Inc, China) following manufacturer’s instruction, and 15 ng of the Copia-Renilla luciferase reporter was co-transfected as a normalization control. Cells were treated with the indicated reagents for 48 h after transfection. The Dual-Luciferase measurements were performed in triplicate using the Luciferase assay kit (Promega) and a LUMIstar Omega luminometer (BMG Labtech, Mornington, Australia).

[3] = test system: Col2a1, Acan, Mmp3, Mmp9, Mmp13 expression in primary mouse chondrocytes; experiment: qRT-PCR of anabolic and catabolic factors in primary chondrocytes; assay type: cell-based; settings: primary murine chondrocytes, 1 ng/ml IL-1β, 24 hr
Protocol: as §1
Quantitative RT-PCR was performed to measure the relative mRNA levels. RNA samples were prepared from the chondrocytes using Trizol (Takara). cDNA was generated using the Prime Script RT reverse transcriptase kit (Yeasen, Drr036a). Primers used for amplification were shown in Supplementary Table S1, GAPDH was used as the house keeping gene.

[4] = Preliminary pharmacokinetic studies in CD1 mice; assay type: in vivo
Protocol: To evaluate the preclinical pharmacokinetic (PK) profiles of compound HL-43 and HL-66, 36 male CD1 mice were randomly divided into four groups for PK studies. […] Blood samples were collected at 0.083, 0.25, 0.5, 1, 2, 4, 8, 12, and 24 h after administration (n = 3). Then the whole blood was centrifuged at 5500 × g for 15 min at 4 °C. After suitable sample preparation, the concentration of HL-43 and HL-66 in plasma sample was determined by Agilent HPLC-MS/MS system (Agilent Technologies, USA). Pharmacokinetic parameters were calculated by WinNonlin software version 7.0 based on non-compartmental analysis (Pharsight Corporation, Mountain View, USA). Mean plasma concentration-time curves were plotted by GraphPad Prism 7.0 (GraphPad Software Inc., CA, USA).

Compound: Cc1ccc(-c2cc(C(F)(F)F)nn2-c2ccc(S(N)(=O)=O)cc2)cc1 [Celecoxib]
IC50 ([1]; Mus musculus, Chondrocyte): 34.7 µM
Mortality (zebrafish embryos; 24hpf, 0.03, n=30): 0/30
Mortality (zebrafish embryos; 24hpf, 0.1, n=30): 7/30
Mortality (zebrafish embryos; 24hpf, 0.3, n=30): 12/30
Mortality (zebrafish embryos; 24hpf, 1, n=30): 18/30
Deformities (zebrafish embryos; 72hpf, 0.03, n=30): 4/30
Hatching (zebrafish embryos; 72hpf, 0.03, n=30): 12/30
Deformities (zebrafish embryos; 72hpf, 0.1, n=30): 3/30
Hatching (zebrafish embryos; 72hpf, 0.1, n=30): 8/30
Deformities (zebrafish embryos; 72hpf, 0.3, n=30): 7/30
Hatching (zebrafish embryos; 72hpf, 0.3, n=30): 13/30
Deformities (zebrafish embryos; 72hpf, 1, n=30): 2/30
Hatching (zebrafish embryos; 72hpf, 1, n=30): 3/30

Compound: O=S(=O)(NCCNC/C=C/c1ccc(Br)cc1)c1cccc2cnccc12 [H89, reference compound]
HL-43-induced CRE luciferase reporter activity (CRE-Luc in ATDC5 cells): completely abolished
HL-43-induced Sox9 promoter luciferase reporter activity [2]: completely abolished

AUC0-∞ ([4]; I.V. (5 mg/kg)): 1236.5 ng·h/mL
C0 ([4]; I.V. (5 mg/kg)): 2557.7 ng/mL
CL ([4]; I.V. (5 mg/kg)): 13 mL/min/kg
Vd ([4]; I.V. (5 mg/kg)): 3.7 L/kg
t1/2 ([4]; I.V. (5 mg/kg)): 3.2 h
AUC0-∞ ([4]; P.O. (1 mg/kg)): 672.5 ng·h/mL
CL ([4]; P.O. (1 mg/kg)): 123 mL/min/kg
Cmax ([4]; P.O. (1 mg/kg)): 286.0 ng/mL
Vd ([4]; P.O. (1 mg/kg)): 26.7 L/kg
t1/2 ([4]; P.O. (1 mg/kg)): 2.5 h
Bioavailability ([4]; oral): 10.9%
Compound: Cc1ccc(-c2nnn(CCOc3ccc(F)cc3)c2C(=O)N[C@@H](C)c2ccc(C(=O)O)cc2)o1 [HL-66]
IC50 [1]: 330 µM
Col2a1 expression (screen of EP4 antagonists) ([3]; EP4 antagonists (2 nM)): highest potency in inducing Col2a1 expression
Mmp3 expression (screen of EP4 antagonists) ([3]; EP4 antagonists (30 μM)): reducing Mmp3 expression
